Measurements as given in PMC10787067, “EBF2 Links KMT2D‐Mediated H3K4me1 to Suppress Pancreatic Cancer Progression via Upregulating KLLN” (Advanced Science, 2023).

Assays:
[1] = test system: KLLN; assay: qPCR of KLLN mRNA in SW1990 cells; format: cell-based, Human; details: vs negative control, p < 0.01, Student's t-test, concentration not given, Figure 4E
Procedure: Total RNA was extracted from cultured cells using RNAiso plus (Takara, Japan). cDNA was synthesized from every 1 µg of total RNA in reverse transcription reactions with Hifair III 1st Strand cDNA Synthesis SuperMix for qPCR (Cat No. 11 141; Yeasen, Shanghai, China). qPCR was performed with Hieff qPCR SYBR Green Master Mix (Yeasen) using a Roche LightCycler 96 Real‐Time PCR System. Cycling conditions were set at 94 °C for 15 s, 60 °C for 1 min, and 72 °C for 30 s. Each reaction was performed in triplicate. The primer sequences were as follows: KMT2D‐F: 5′‐[…]‐3′; KMT2D‐R: 5′‐[…]‐3′; EBF2‐F: 5′‐[…]‐3′; EBF2‐R: 5′‐[…]‐3′; KLLN‐F: 5′‐[…]‐3’; KLLN‐R: 5′‐[…]‐3′. β‐actin‐F: 5′‐[…]‐3′; β‐actin‐R: 5′‐[…]‐3′.

[2] = test system: KLLN; assay: Western blot of KLLN in SW1990 cells; format: cell-based, Human
Procedure: (§1) SW1990 and PANC‐1 cells were isolated using lysate buffer containing protease inhibitors. Samples containing equal amounts of protein were separated by SDS‐PAGE. After electrophoresis, the proteins were transferred to a PVDF membrane (Millipore, Billerica, MA, USA) and blocked with 5% skim milk for 2 h at room temperature. An overnight incubation of membranes was made at 4 °C with primary antibodies against KMT2D (1:1000; Affinity, China), EBF2 (1:1000; Affinity), and KLLN (1:1000; Abcam, USA). After washing with 1× TBST for three times, a 2 h incubation of membranes was implemented with horseradish peroxidase (HRP)‐gemeled Affinipure Goat Anti‐Rabbit IgG (H + L) (1:10000; ProteinTech, China) or Peroxidase‐gemeled Affinipure Goat Anti‐Mouse IgG (H+L) (1:10000; ProteinTech) at room temperature. Proteins were visualized by chemiluminescence using an ECL kit (Thermo Fisher).

[3] = test system: H3K4me1; assay: Western blot of H3K4me1 in SW1990 cells; format: cell-based, Human
[4] = test system: KLLN; assay: Western blot of KLLN in PANC-1 cells; format: cell-based, Human; details: 0, 1, 10 or 100 μM GSK-LSD1, Figure S4D
Procedure: as §1

[5] = test system: H3K4me1; assay: Western blot of H3K4me1 in PANC-1 cells; format: cell-based, Human; details: 0, 1, 10 or 100 μM GSK-LSD1, Figure S4D
[6] = test system: PANC‐1 cells; assay: Colony-formation and CCK-8 proliferation, PANC-1; format: cell-based, Human; details: vs Vehicle, p < 0.01, Figure S4E,F
Procedure: (§2) Cell proliferation was determined by Cell Counting Kit‐8 (CCK‐8, Yeasen) and EdU Cell Proliferation Assay kit (Ribobio, Guangzhou, China). Colony formation was observed by staining with 0.1% crystal violet (Sangon Biotechnologies Inc., Shanghai, China). Cell migration and invasion were assessed using […] pore Transwell chambers with (for invasion assay) or without Matrigel (for migration assay). For migration assay, 5 × 10^4 SW1990 or 3 × 10^4 PANC‐1 cells were seeded into the upper chamber of the Transwell apparatus (Corning, USA) in serum‐free medium, and the medium supplemented with 10% FBS was added to the bottom chamber. For invasion assay, 10 × 10^4 SW1990 or 6 × 10^4 PANC‐1 cells were seeded into the upper Corning BioCoat Matrigel invasion chamber. After 24 h, the cells on the upper surface that had not passed through the polycarbonate filter were removed using a moistened cotton swab; the cells having migrated to the lower membrane surface were fixed in 100% methanol for 10 min, stained with 0.4% crystal violet for 15 min, and counted under a microscope (Nikon, Japan) at ×100 magnification. The cells were manually counted using Image J software. Three independent experiments were performed.

[7] = test system: SW1990 cells; assay: Transwell migration and invasion, SW1990; format: cell-based, Human; details: 24 h, vs Vehicle, p < 0.01, Figure 5H
Procedure: as §2

[8] = test system: SW1990‐luc xenografts; assay: SW1990-luc xenografts in BALB/c nude mice; format: in vivo, Human (xenograft in BALB/c nude mice); details: n = 5, p < 0.01, two-way ANOVA, dose not given, Figure 5I-K
Procedure: BALB/c nude mice (4 weeks old) were purchased from the Animal Core Facility of Nanjing Medical University. Every 1 × 10^6 SW1990‐luc cells (SW1990 cells labeled with luciferase) were suspended in 100 µL of PBS and Matrigel (Corning) mixture, then subcutaneously injected into the right forelimb of nude mice. The length and width of tumor were measured every 2 or 3 days. Tumor volume was calculated using the formula: Volume = 0.5 × length × width^2. Luciferase signals in nude mice were measured at the first and fourth week after injection. The mice were sacrificed at 30 days for in vivo proliferation assay. Mice were anesthetized with isoflurane gas and sacrificed by cervical dislocation. Tumor tissues of these mice were collected for further analyses. Luciferase signals from D‐luciferin (Cat No. MB1834; MeilunBio, Dalian, China) were measured using IVIS Spectrum (PerkinElmer, USA) at indicated concentrations. The luciferase signal activity was quantitated using the software provided by the manufacturer.

[9] = test system: H3K4me1; assay: Western blot and IHC of metastatic foci from treated mice, H3K4me1; format: in vivo, Human (xenograft in BALB/c nude mice); details: control vs GSK-LSD1-treated lung metastasis tissues, Figure 5L,M
[10] = test system: KLLN; assay: Western blot and IHC of metastatic foci from treated mice, KLLN; format: in vivo, Human (xenograft in BALB/c nude mice); details: control vs GSK-LSD1-treated lung metastasis tissues, Figure 5L,M
[11] = test system: PDX tumors; assay: Patient-derived xenograft (PDX) model of PDAC; format: in vivo, Human (xenograft in immunodeficient nude mice)
Source text: A PDX model was established by implanting tumor fragments into immunodeficient nude mice. Tumor fragments were derived from a PDAC patient with stage II ductal adenocarcinoma, who underwent surgery at the Second Affiliated Hospital of Nanjing Medical University. Informed consent was obtained from each patient, and all procedures involving human samples were approved by the Ethics Committee of the Second Affiliated Hospital of Nanjing Medical University.

[12] = test system: PANC‐1 cells; assay: KLLN rescue experiments (CCK-8, colony-formation, Transwell), PANC-1; format: cell-based, Human; details: p < 0.01, Figure S4H-J
Procedure: as §2

[13] = test system: KDM1A/LSD1; details: cited from earlier work
Source text: Next, we sought to elucidate the roles of KMT2D‐ and EBF2‐regulated H3K4me1 through profiling the gene transcription in PDAC cells with H3K4me1 activation by GSK‐LSD1 or EBF2 overexpression (EBF2‐OE). […] These differentially expressed genes (DEGs) were overlapped genes between EBF2‐OE and GSK‐LSD1‐treated SW1990 cells. A ...

[14] = 0, 1, 10, or 100 µM GSK-LSD1, Figure 5E

With `c1ccc([C@@H]2C[C@H]2NC2CCNCC2)cc1` [GSK‐LSD1] the “KLLN mRNA level” value [1] was “significant upregulation”, the “KLLN level, concentration dependence” value [2, 14] was “increased the levels of H3K4me1 and KLLN in a concentration‐dependent manner” and the KLLN protein level ([2]; Western blot, concentration not given, Figure 4F) was “significant upregulation”. For the same molecule, the “H3K4me1 level, concentration dependence” value [3, 14] was “increased the levels of H3K4me1 and KLLN in a concentration‐dependent manner”, the “H3K4me1 level in Co-IP experiment” value ([3]; vs vehicle, concentration not given, Figure 5P) was “increased H3K4me1 level” and the “KLLN level, concentration dependence” value [4] was “increased the levels of H3K4me1 and KLLN in a concentration‐dependent manner”. The “H3K4me1 level, concentration dependence” value [5] was “increased the levels of H3K4me1 and KLLN in a concentration‐dependent manner”, the proliferation [6] was “significantly inhibited” and the invasion ([7]; Transwell with Matrigel) was “significantly inhibited”. For the same molecule, the migration ([7]; Transwell without Matrigel) was “significantly inhibited”, the “xenograft size compared to control mice” value [8] was “significantly smaller sizes of SW1990‐luc xenografts” and the “H3K4me1 in metastatic foci” value [9] was “upregulation”. For the same molecule, the “KLLN in metastatic foci” value [10] was “upregulation”, the “effect compared with Gemcitabine” value ([11]; PDX mice, n = 5, doses not given, Figure 5N,O) was “more favorable effects than Gemcitabine” and the “PDX tumor size compared with control mice” value ([11]; n = 5, dose not given, Figure 5N) was “remarkably smaller tumors”. For the same molecule, the “tumor-suppressive phenotype of GSK-LSD1 on knockdown of KLLN” value [12] was “markedly attenuated”, the “H3K4me1 level via blocking of KDM1A/LSD1” value [13] was “can increase H3K4me1 level” and the “inhibition of KDM1A/LSD1, in words” value [13] was “selective inhibitor of KDM1A/LSD1”.
